# In patent US9220706B2, “Inhibition of leukemic stem cells by PP2A activating agents” (Ohio State Innovation Foundation, priority 2012, dated 2015):
# Key:
# [1] = system: human CML CD34^+ BM cells in NSG mice; format: in vivo
# From the text: Engraftment of Human Normal and CML Cells in Immnunodeficient NSG Mice and Effect of FTY720 on Leukemic and Normal Hematopoietic Stem/Progenitor Cells. CD34+ cells were isolated from BM of CML patients (n=3) or from umbilical cord blood specimens (UCB; n=3). Note that CML samples were from patients in blastic transformation with ≧75% of Ph+ blasts. Sublethally irradiated (260 rads) 6-8 week-old NOD.Cg-Prkds^scid IL2rg^tm1WjI/SzJ (NSG, Jackson Laboratory) mice were intrafemorally injected with 1-3×10^6 CML or 10^5 UCB CD34^+ cells/mouse. The engraftment was assessed 8 weeks post-transplant by anti-human CD45 (BD Biosciences) and anti-mouse CD45.1 flow staining of intrafemoral BM aspirates and PB from tail vein. Wunderlich et al., Leukemia 24, 1785-1788 (2010). CML- and UCB-engrafted NSG mice were treated for 8 weeks (8-10 mice/group) with either FTY720 (10 mg/kg/day; i.p.) or PBS. Disease evolution and effect of FTY720 on HSC-enriched cell fraction (CD45^+/CD34^+/CD38^−), primitive progenitors (CD45+/CD34+), myeloid (CD45^+/CD34^+/CD33^+), B-cell (CD45^+/CD19^+) and T-cell (CD45^+/CD3^+) compartments were determined before and after 4/8 weeks of FTY720 treatment by FACS-mediated analysis of BM aspirates and/or PB cells. BCR-ABL1 transcript levels were monitored by qRT-PCR-mediated (Ipsogen) analysis of BCR-ABL1/human Abl1 ratios in total RNA samples derived from BM-aspirates of CML-engrafted animals at time of engraftment (time 0) and after 8 weeks of FTY720 treatment. […] These studies were performed by IRB and IACUC approved protocols.
# Fluorescent in situ hybridization (FISH). Human CD45+ cells from intrafemoral BM aspirates of untreated and 8 weeks FTY720-treated NSG mice engrafted with CD34+ CML-BC and UCB cells, were FACS-isolated, dropped onto microscope slides, and fixed in a solution of three parts methanol and one part acetic acid. A triple color, dual fusion BCR/ABL1 FISH probe was applied according to the manufacturer's instructions (Kreatech Diagnostics). Hybridized slides were counterstained with DAPI and visualized under an Olympus BX41 microscope. Images were captured using a Hammamatsu Orca II CCD camera and SmartCapture X software (Digital Scientific).
# BCR-ABL1^+ cells = assay: Intracellular phosphorylation of FTY720; format: cell-based
# [2] = system: β-catenin-driven (LEF/TCF) transcriptional activity; assay: LEF/TCF reporter assay; format: cell-based, human; settings: CD34^+/CD38^− CML and 32D-BCR/ABL cells
# Procedure: LEF/TCF reporter assay. CD34+/CD38− CML cells were transduced with pBAR or pfuBAR (negative control) ®-catenin lentiviral reporter constructs (54), puromycin-selected and treated with the indicated drugs. Luciferase was measured using the Bright-Glo Luciferase system (Promega).
# CML cells = assay: Long term culture-initiating cell (LTC-IC) assay; format: cell-based, human; settings: drug during first week of 6-week culture, vs untreated
# Procedure: (§1) Long term culture-initiating cell (LTC-IC) and Colony-forming cell (CFC)/replating assays. 2×10^6 mononuclear CML cells were cultured with a 1:1 mixture of irradiated (80 Gy) IL-3/G-CSF-producing M2-10B4 and IL-3/KL-producing SI/SI murine fibroblasts in MyeloCult H5100 (StemCell Technologies) supplemented with hydrocortisone. Drugs were present during the first week of culture. Medium was replaced after 7 days, followed by weekly half-medium changes. After 6 weeks, adherent and floating cells were harvested and 5×10^4 cells plated into MethoCult H4435. LTC-IC-derived colonies were scored after 14 days. For CFC/replating, individual 14-day colonies from 10^3-10^5 CD34+/CD38− CML or 0.2×10^3-10^3 leukemic LSK cells plated in 0.9% H4435 or M3234 MethoCult, respectively, containing KL, G-CSF, GM-CSF, IL-3, IL-6, and Epo were replated and scored 2 weeks later.
# [3] = system: LSK SCLtTA/BCR-ABL1 cells; assay: CFC/replating assay, leukemic LSK cells; format: cell-based, mouse
# Procedure: as §1
# [4] = system: CML cells (CFSE^max/CD34^+, CD34^+/CD38^−, CD34^+); assay: Annexin-V/7-AAD apoptosis staining; format: cell-based, human
# Procedure: CFSE-mediated tracking of cell division. Carboxyfluorescein diacetate succinimidyl diester (CFSE)-stained cells (CellTrace CFSE Proliferation Kit: Invitrogen) were cultured in the presence of the indicated drugs (dosed at time zero and at day three), and the cells were harvested after 3 or 6 days in culture, and stained with anti-CD34 PE, Annexin-V V450, and the viability stain 7-AAD (BD Bioscience) to determine the number of viable quiescent cells (CFSEmax/CD34^+/7-AAD− cells) and the percentage of quiescent and apoptosis-committed cells (CFSEmax/CD34+/Annexin V+/7-AAD±). Cells were sorted into dividing and quiescent populations for Western blot analysis. For assessment of mouse quiescent leukemic HSCs, Lin- cells from 8 week-induced SCLtTA/BCR-ABL1 mice were CFSE-stained and used as described above. Quiescent cells (CFSE^max/CD34^+) were reported as a fraction of the initial number of CD34^+ cells.
# CD34+/CD38− CML cells = assay: CFC/replating assay, CML cells; format: cell-based, human
# Procedure: as §1
# [5] = BM of NSG mice, 4 and 8 weeks FTY720 10 mg/kg/day i.p.
smiles,measurement,setting,value
CCCCCCCCc1ccc(CCC(N)(CO)CO)cc1 [FTY720],BCR-ABL1 transcripts (BCR-ABL1/hAbl1),[1]; BM aspirates of FTY720-treated CML-engrafted mice,significant decrease
same,reduction in CD45^+/CD34^+ progenitors,[1]; [5],~85%
same,reduction in CD45^+/CD34^+/CD38^− HSCs,[1]; [5],~97%
same,reduction in total hCD45^+ cells,[1]; [5],~83%
same,Ph^+ hCD45^+/CD33^+ myeloid cells,[1]; CML-engrafted NSG mice,also reduced
same,adverse effects or changes in animal behavior,"[1]; mouse, in vivo, ip, 10 mg/kg/day",have not been noted
same,intracellular FTY720 remaining unphosphorylated,BCR-ABL1^+ cells,more than 90%
same,β-catenin transcriptional activity (LEF/TCF luciferase),[2],markedly impaired
same,inhibition of LTC-ICs,CML cells,60-70%
same,reduction in replating efficiency,[3],70-90%
same,apoptosis of CD34^+ CML progenitors in combination with imatinib,[4]; CD34^+ CML progenitors n=10,synergizes with imatinib
same,apoptosis of quiescent/HSC-enriched CML cells,[4]; CFSE^max/CD34^+ or CD34^+/CD38^− CML cells,triggered apoptosis
same,reduction in replating efficiency,CD34+/CD38− CML cells,70-90%
